What all share (experiment): relative viability (nuclei count vs DMSO), 5 days (fraction); higher = more cells survive
Compound in test [1]: Cc1ccc(C(=O)Nc2cccc(C(F)(F)F)c2)cc1Nc1cncc(C(N)=O)c1 [ALW-II-49-7] + O=C(c1cc(Cc2n[nH]c(=O)c3ccccc23)ccc1F)N1CCN(C(=O)C2CC2)CC1 [Olaparib] (partner 8 µM)
Put shortly:
(§1)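 Lung cancer cell lines in 1536-well plates got either a single drug or a fixed anchor-drug dose together with five library-drug doses (not always all listed) in √10 steps, by pin tool, on the day after seeding. Nuclei were counted after 5 days, and relative viability is the treated-to-vehicle ratio of nuclei counts. Values are medians of duplicate plates.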

Compound in test [2]: C1CC1C(=O)NC2=NNC3=C2C=CC(=C3)C4=CC(=CC=C4)C(=O)NC5CC5 [XMD13-2] + COc1cc2c(Oc3ccc(NC(=O)C4(C(=O)Nc5ccc(F)cc5)CC4)cc3F)ccnc2cc1OCCCN1CCOCC1 [Foretinib] (partner 0.25 µM)
The method in brief: as §1

Compound in test [3]: Cc1nc(Nc2ncc(C(=O)Nc3c(C)cccc3Cl)s2)cc(N2CCN(CCO)CC2)n1 [Dasatinib] + COc1cccc2cc(-c3nc([C@H]4CC[C@H](C(=O)O)CC4)n4ncnc(N)c34)[nH]c12 [OSI-027] (partner 0.5 µM)
Put shortly: as §1

Compound in test [4]: Cc1nc(Nc2ncc(C(=O)Nc3c(C)cccc3Cl)s2)cc(N2CCN(CCO)CC2)n1 [Dasatinib] + CC1(C)CCC(c2ccc(Cl)cc2)=C(CN2CCN(c3ccc(C(=O)NS(=O)(=O)c4ccc(N[C@H](CCN5CCOCC5)CSc5ccccc5)c(S(=O)(=O)C(F)(F)F)c4)cc3)CC2)C1 [Navitoclax] (partner 0.5 µM)
Put shortly: as §1

For RERF-LC-KJ, the relative viability in test [1] (first compound 0.08 µM) was 0.988; in test [1] (first compound 0.253 µM), 1.06; in test [1] (first compound 0.8 µM), 0.874; in test [1] (first compound 2.53 µM), 0.856; in test [1] (first compound 8 µM), 0.725; in test [2] (first compound 0.05 µM) it was 0.871. For the same cell line, the relative viability in test [2] (first compound 0.1581 µM) was 0.869; in test [2] (first compound 0.5 µM), 0.87; in test [2] (first compound 1.581 µM) it was 0.795; in test [2] (first compound 5 µM), 0.844; in test [3] (first compound 0.005 µM) it was 0.576; in test [3] (first compound 0.01581 µM), 0.475. Further, the relative viability in test [3] (first compound 0.05 µM) was 0.514; in test [3] (first compound 0.1581 µM), 0.382; in test [3] (first compound 0.5 µM) it was 0.376; in test [4] (first compound 0.005 µM), 1.11; in test [4] (first compound 0.01581 µM) it was 0.537; in test [4] (first compound 0.05 µM), 0.855. Further, the relative viability came to 0.669 in test [4] (first compound 0.1581 µM) and 0.656 in test [4] (first compound 0.5 µM).
In the case of SK-LU-1, the relative viability in test [1] (first compound 0.08 µM) was determined as 0.543; in test [1] (first compound 0.253 µM), 0.49; in test [1] (first compound 0.8 µM), 0.451; in test [1] (first compound 8 µM), 0.362; in test [2] (first compound 0.05 µM), 1.04; in test [2] (first compound 0.1581 µM), 0.854. The relative viability in test [2] (first compound 0.5 µM) came out at 0.933; in test [2] (first compound 1.581 µM), 0.81; in test [2] (first compound 5 µM) it was 0.697; in test [3] (first compound 0.005 µM), 0.271; in test [3] (first compound 0.01581 µM) it was 0.167; in test [3] (first compound 0.05 µM), 0.167. Besides, the relative viability in test [3] (first compound 0.1581 µM) turned out to be 0.14; in test [3] (first compound 0.5 µM) it was 0.152; in test [4] (first compound 0.005 µM), 0.812; in test [4] (first compound 0.01581 µM), 0.57; in test [4] (first compound 0.05 µM), 0.301; in test [4] (first compound 0.1581 µM), 0.226. For the same cell line, the relative viability in test [4] (first compound 0.5 µM) stood at 0.154.
SK-MES-1: the relative viability in test [1] (first compound 0.08 µM) stood at 0.548; in test [1] (first compound 0.253 µM) it was 0.815; in test [1] (first compound 0.8 µM) it was 0.746; in test [1] (first compound 2.53 µM), 0.527; in test [1] (first compound 8 µM), 0.418; in test [2] (first compound 0.05 µM), 0.866. Besides, the relative viability in test [2] (first compound 0.1581 µM) was 0.967; in test [2] (first compound 0.5 µM), 1.06; in test [2] (first compound 1.581 µM), 0.87; in test [2] (first compound 5 µM) it was 1.15; in test [3] (first compound 0.005 µM), 0.738; in test [3] (first compound 0.01581 µM) it was 0.57. The relative viability in test [3] (first compound 0.05 µM) is 0.409; in test [3] (first compound 0.1581 µM) it was 0.21; in test [3] (first compound 0.5 µM), 0.14; in test [4] (first compound 0.005 µM), 1.18; in test [4] (first compound 0.05 µM) it was 1.41; in test [4] (first compound 0.1581 µM) it was 0.802. For the same cell line, the relative viability in test [4] (first compound 0.5 µM) was determined as 0.429.
Turning to SW 1573, the relative viability in test [1] (first compound 0.08 µM) was determined as 0.508; in test [1] (first compound 0.253 µM), 0.561; in test [1] (first compound 0.8 µM), 0.469; in test [1] (first compound 2.53 µM), 0.505; in test [1] (first compound 8 µM) it was 0.349; in test [2] (first compound 0.05 µM), 1.01. Further, the relative viability in test [2] (first compound 0.1581 µM) was 0.832; in test [2] (first compound 0.5 µM), 0.984; in test [2] (first compound 1.581 µM) it was 0.841; in test [2] (first compound 5 µM), 0.733; in test [3] (first compound 0.005 µM) it was 0.638; in test [3] (first compound 0.01581 µM), 0.532. In addition, the relative viability in test [3] (first compound 0.05 µM) was 0.393; in test [3] (first compound 0.1581 µM), 0.408; in test [3] (first compound 0.5 µM), 0.296; in test [4] (first compound 0.005 µM), 0.906; in test [4] (first compound 0.01581 µM), 0.899; in test [4] (first compound 0.05 µM), 0.946. For the same cell line, the results for the relative viability in test [4] (first compound 0.1581 µM) and in test [4] (first compound 0.5 µM) were 0.473 and 0.481, respectively.

Source of the values: the supplement of paper PMC10307832.
